Some test systems named below: EKVX; UACC-62; NCI/ADR-RES; OVCAR-3; MOLT-4; SNB-75; NCI-H522; KM12; SK-MEL-2; LOX IMVI; SF-539; M14; T47D; MDA-N; HCC 2998; COLO 205; Hs-578T; NCI-H226; SK-OV-3; U-251.
What all share (test): inhibition of tumour cell growth, NCI panel, 48 h

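Interpolation was linear, between the two tested concentrations surrounding the appropriate level; five concentrations were tested over 48 hours in 96-well plates. GI50 = concentration required for 50% inhibition of growth.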 The source made the active and inactive calls. No stated cut-off is given here; in the data, active = GI50 up to about 1.1 µM and inactive = higher.

For `Oc1ncnc2c1nnn2CCCCCCCCCCCCn1nnc2c(O)ncnc21`, the GI50 was 21.3 µM (inactive) in the experiment on EKVX; 36.9 µM (inactive) in the experiment with UACC-62; > 100 µM (inactive) in the experiment on NCI/ADR-RES; 40.5 µM (inactive) with OVCAR-3; > 100 µM (inactive) in the experiment with MOLT-4; > 40.9 µM (inactive) in the experiment with SNB-75. Besides, the GI50 in the experiment with NCI-H522 is 20.4 µM (inactive); with KM12, > 100 µM (inactive); with SK-MEL-2, 23.4 µM (inactive); in the experiment on LOX IMVI, 45.8 µM (inactive); in the experiment on SF-539, 31.7 µM (inactive); with M14, > 100 µM (inactive). The GI50 with T47D is 0.641 µM (active); in the experiment with MDA-N, > 100 µM (inactive); with HCC 2998, > 78.7 µM (inactive); with COLO 205, > 83.4 µM (inactive); in the experiment on Hs-578T, 18.9 µM (inactive); in the experiment with NCI-H226, 32.6 µM (inactive). Besides, the GI50 is 17.7 µM (inactive) in the experiment on SK-OV-3 and 21.5 µM (inactive) in the experiment with U-251.

Consider `C[C@]12CC[C@H]3[C@@H](CC=C4C[C@@H](O)CC[C@@]43C)[C@@H]1CC[C@@H]2N(CCO)CCO`, for which the GI50 is 19.4 µM (inactive) in the experiment on EKVX; 35.3 µM (inactive) in the experiment on UACC-62; > 100 µM (inactive) in the experiment with NCI/ADR-RES; 34.8 µM (inactive) in the experiment on OVCAR-3; > 100 µM (inactive) in the experiment on MOLT-4; 72.8 µM (inactive) with SNB-75. Also, the GI50 in the experiment with NCI-H522 is 20.4 µM (inactive); with KM12 it was 54.5 µM (inactive); with SK-MEL-2, 76.2 µM (inactive); in the experiment on LOX IMVI it was 40.7 µM (inactive); in the experiment with SF-539, 54.7 µM (inactive); with M14, 48.4 µM (inactive). Moreover, the GI50 with T47D is 86.3 µM (inactive); in the experiment with MDA-N it was 45.9 µM (inactive); in the experiment with HCC 2998, 27 µM (inactive); in the experiment with COLO 205, 44.3 µM (inactive); in the experiment on Hs-578T it was 45.2 µM (inactive); in the experiment on NCI-H226, > 100 µM (inactive). Also, the GI50 was 23.3 µM (inactive) with SK-OV-3 and 59.8 µM (inactive) with U-251.

`COC(=O)c1c(C)cccc1C1CN=NC12Cc1ccccc1C2=O` (stereo unspecified): the GI50 is > 93.5 µM (inactive) in the experiment with EKVX; 74.6 µM (inactive) in the experiment with UACC-62; 35.1 µM (inactive) in the experiment with NCI/ADR-RES; 15.7 µM (inactive) in the experiment on OVCAR-3; 36.2 µM (inactive) in the experiment with MOLT-4; 65.2 µM (inactive) with SNB-75. Moreover, the GI50 is 43.5 µM (inactive) in the experiment on NCI-H522; > 78 µM (inactive) in the experiment with KM12; > 100 µM (inactive) in the experiment on SK-MEL-2; 31.2 µM (inactive) in the experiment with LOX IMVI; > 100 µM (inactive) with SF-539; 20.1 µM (inactive) in the experiment on M14. In addition, the GI50 with T47D is 38.1 µM (inactive); in the experiment with MDA-N it was > 100 µM (inactive); with HCC 2998, > 100 µM (inactive); in the experiment on COLO 205, 60.8 µM (inactive); in the experiment on Hs-578T it was 96.2 µM (inactive); in the experiment with NCI-H226 it was > 83.4 µM (inactive). Besides, the GI50 in the experiment with SK-OV-3 and with U-251 was > 100 µM (inactive) in each case.

Turning to `O=C1c2c(Cl)c(Cl)c(Cl)c(Cl)c2C(=O)N1CCN(c1c(Cl)ssc1=O)c1c(Cl)ssc1=O`, the GI50 is 32.1 µM (inactive) in the experiment with EKVX; 19.3 µM (inactive) with UACC-62; 49.3 µM (inactive) in the experiment on NCI/ADR-RES; 18.7 µM (inactive) in the experiment on OVCAR-3; 10.3 µM (inactive) in the experiment on MOLT-4; 31.6 µM (inactive) with SNB-75. The GI50 was 23.2 µM (inactive) with NCI-H522; 54.8 µM (inactive) in the experiment with KM12; 24.2 µM (inactive) in the experiment with SK-MEL-2; 21.9 µM (inactive) in the experiment on LOX IMVI; 19.1 µM (inactive) with SF-539; 21.5 µM (inactive) with M14. Also, the GI50 in the experiment with T47D is 17.1 µM (inactive); in the experiment with MDA-N it was 18.5 µM (inactive); with HCC 2998, 21.2 µM (inactive); with COLO 205, 18.2 µM (inactive); in the experiment with Hs-578T it was > 100 µM (inactive); with NCI-H226 it was > 100 µM (inactive). Moreover, the figures for the GI50 in the experiment with SK-OV-3 and with U-251 were > 100 µM (inactive) and 95.9 µM (inactive), respectively.

`O=C1C(N2CCCC2)=CC(=O)c2c(O)c(N3CCCC3)c(Cl)c(O)c21`: the GI50 in the experiment on EKVX, in the experiment with UACC-62, with NCI/ADR-RES, in the experiment on OVCAR-3, in the experiment with MOLT-4 and with SNB-75 was > 10 µM (inactive) throughout. Besides, the GI50 in the experiment with NCI-H522, in the experiment with KM12, in the experiment with SK-MEL-2, in the experiment with LOX IMVI, in the experiment on SF-539 and in the experiment with M14 was > 10 µM (inactive) in each case. In addition, the GI50 in the experiment with T47D, in the experiment on MDA-N, in the experiment with HCC 2998, in the experiment on COLO 205, in the experiment on Hs-578T and in the experiment on NCI-H226 was > 10 µM (inactive) each time. Further, the GI50 in the experiment with SK-OV-3 and in the experiment with U-251 was > 10 µM (inactive) in each case.

With `NC1=NN(c2ccccc2)C2(O)c3ccncc3C3=NN(c4ccccc4)C(=O)C132` (stereo unspecified), the GI50 in the experiment with EKVX, in the experiment with UACC-62, in the experiment on NCI/ADR-RES, in the experiment with OVCAR-3, in the experiment with MOLT-4 and in the experiment with SNB-75 was > 100 µM (inactive) throughout. Further, the GI50 with NCI-H522, with KM12, with SK-MEL-2, in the experiment with LOX IMVI, in the experiment with SF-539 and with M14 was > 100 µM (inactive) in each case. The GI50 with T47D, in the experiment on MDA-N, in the experiment with HCC 2998, with COLO 205, in the experiment with Hs-578T and in the experiment on NCI-H226 was > 100 µM (inactive) in each case. Also, the GI50 with SK-OV-3 and in the experiment with U-251 was > 100 µM (inactive) in each case.

Turning to `CCOP(=O)(OCC)/C(C#N)=C/c1c[nH]c2ccccc12`, the GI50 was > 100 µM (inactive) in the experiment on EKVX; > 100 µM (inactive) with UACC-62; 53 µM (inactive) in the experiment with NCI/ADR-RES; 62.8 µM (inactive) with OVCAR-3; > 100 µM (inactive) in the experiment on SNB-75; > 100 µM (inactive) in the experiment with NCI-H522. The GI50 in the experiment on KM12, in the experiment with SK-MEL-2, in the experiment on LOX IMVI, in the experiment on SF-539, in the experiment on M14 and in the experiment with T47D was > 100 µM (inactive) in each case. Further, the GI50 with MDA-N, in the experiment with HCC 2998, in the experiment with COLO 205, with Hs-578T, in the experiment with NCI-H226 and with SK-OV-3 was > 100 µM (inactive) throughout. Also, the GI50 with U-251 was > 100 µM (inactive).

Consider `CN(C)c1c(C2CC(O)C(CO)O2)c(=O)c1=O` (stereo unspecified), for which the GI50 in the experiment on EKVX, with UACC-62, with NCI/ADR-RES, with OVCAR-3, in the experiment on MOLT-4 and with SNB-75 was > 100 µM (inactive) each time. In addition, the GI50 with NCI-H522, with KM12, in the experiment with SK-MEL-2, in the experiment on LOX IMVI, in the experiment with SF-539 and in the experiment with M14 was > 100 µM (inactive) throughout. Besides, the GI50 in the experiment with T47D is > 100 µM (inactive); with MDA-N it was > 100 µM (inactive); with HCC 2998, > 100 µM (inactive); in the experiment with Hs-578T, > 100 µM (inactive); in the experiment on NCI-H226, 77.1 µM (inactive); in the experiment with SK-OV-3, > 100 µM (inactive). Moreover, the GI50 in the experiment with U-251 is > 100 µM (inactive).

In the case of `COc1ccc2nc(-c3cccc(N(C)C)c3)cc(O)c2c1`, the GI50 in the experiment with EKVX is 1.55 µM (inactive); in the experiment on UACC-62 it was 0.252 µM (active); in the experiment with NCI/ADR-RES it was 0.185 µM (active); in the experiment with OVCAR-3, 0.169 µM (active); in the experiment with MOLT-4, 0.344 µM (active); in the experiment with SNB-75 it was 0.299 µM (active). In addition, the GI50 is 0.204 µM (active) with NCI-H522; 0.337 µM (active) in the experiment with KM12; 0.314 µM (active) with SK-MEL-2; 0.334 µM (active) with LOX IMVI; 0.151 µM (active) in the experiment on SF-539; > 10 µM (inactive) with T47D. Besides, the GI50 is 0.0608 µM (active) in the experiment with MDA-N; 0.608 µM (active) with HCC 2998; 0.198 µM (active) in the experiment on COLO 205; 0.188 µM (active) in the experiment with Hs-578T; 0.266 µM (active) with NCI-H226; 0.327 µM (active) with SK-OV-3. Further, the GI50 with U-251 is 0.247 µM (active).

For the molecule `O=C1/C(=C\c2ccc([N+](=O)[O-])cc2)CS(=O)(=O)C/C1=C/c1ccc([N+](=O)[O-])cc1`, the GI50 is 1.21 µM (inactive) in the experiment on EKVX; 0.198 µM (active) in the experiment on UACC-62; 0.161 µM (active) in the experiment with NCI/ADR-RES; 0.141 µM (active) in the experiment on OVCAR-3; 15.5 µM (inactive) in the experiment on SNB-75; 0.277 µM (active) in the experiment on NCI-H522. Also, the GI50 is 0.327 µM (active) in the experiment on KM12; 1.17 µM (inactive) in the experiment on SK-MEL-2; 0.597 µM (active) in the experiment on LOX IMVI; 0.189 µM (active) in the experiment on SF-539; 0.74 µM (active) with M14; 0.962 µM (active) with T47D. The GI50 in the experiment on MDA-N was 0.35 µM (active); in the experiment with HCC 2998 it was 0.247 µM (active); in the experiment on COLO 205, 0.188 µM (active); in the experiment on Hs-578T, 1.35 µM (inactive); in the experiment with NCI-H226 it was 2.83 µM (inactive); in the experiment with SK-OV-3, 4.8 µM (inactive). The GI50 in the experiment on U-251 was 0.298 µM (active).

Source of the values: ChEMBL document CHEMBL1201862, “PubChem BioAssay data set” (2004).
